# Values of other authors as cited in patent publication US7588907B2, “Ubiquitin mediated fluorescence complementation assay” (The Regents of the University of Michigan, priority 2005, dated 2009).
# Residues, ends and D or L forms follow the SMILES beside them. *: point of attachment. Cbz = O=C(OCc1ccccc1)*
# Tested on: Jun ubiquitinated by DCX^hDET1-hCOP1
# Settings: cells that overexpressed DCX^hDET1-hCOP1 E3 ligase
smiles,measurement,value
CC(C)C[C@@H](C=O)NC(=O)[C@H](CC(C)C)NC(=O)[C@H](CC(C)C)NC(=O)OCc1ccccc1 [MG132] (Cbz-Leu-Leu-Leu-aldehyde),effect on Jun degradation,inhibited
